# Experiments:
# [1] = test system: children diagnosed as having autism; test: Fecal Chymotrypsin Test after secretin infusion in autistic children; type: in vivo, human
# Description: In this experiment, 16 children diagnosed as having autism were administered the following Fecal Chymotrypsin Test in accordance with an embodiment of the invention. First, approximately 2 grams of stool were collected from each child and placed in a sterile container (although it is to be understood that any quantity of stool may be collected, as 2 grams of stool is not a required amount). Each stool sample was then analyzed using, e.g., an enzymatic photospectrometry analysis as is known by those skilled in the art, to determine the level of fecal chymotrypsin in the stool. Although the enzymatic photospectrophotometry process is preferred, any suitable conventional method may be used for measuring the fecal chymotrypsin levels. This measured chymotrypsin levels of the 16 autistic children are illustrated in FIG. 13.
# After determining the chymotrypsin levels of the stools, each of these levels were compared with threshold chymotrypsin levels to determine if the child was likely to benefit from secretin administration. By way of example, with the fecal chymotrypsin tests of the stool samples being performed at 30EC, normal levels of chymotrypsin are deemed to lie above 8.4 U/gram, whereas pathologically abnormal levels are deemed to lie below 4.2 U/gram. In addition, chymotrypsin levels between 8.4 U/gram and 4.2 U/gram are considered equivocal, and further testing of the individual's fecal chymotrypsin levels over a period of time should be performed.
# For each of the 16 autistic children tested, a preferred secretin infusion process according to the present invention was performed involving the administering of 1 U/kg of body weight of Secretin-Ferring for a period of nine months at intervals of approximately 6 weeks. […]
# In this experiment, 37 autistic children with abnormal fecal chymotrypsin levels were administered secretin over the course of 6 months using the secretin infusion process described above. Their fecal chymotrypsin (FC) levels were measured weekly using the fecal chymotrypsin test described above.
# [2] = test system: children diagnosed with ADHD; test: Required Ritalin level of ADHD children administered secretin; type: in vivo, human; settings: each of 5 ADHD children with pathologic FC level; 6 months post-secretin vs pre-secretin
# Description: A preferred secretin infusion process includes the initial step of prepping an arm of the candidate child with an IV injection of saline. A test dose of 1 U of Secretin-Ferring is then administered to the child. Approximately one minute after infusion, the child is examined for signs of allergic reaction including rash, increased heart rate, and increase of blood pressure. […] Subsequently, each child receives a 1 U/kg of body weight infusion of Secretin-Ferring approximately every 6 weeks for 9 months. It is to be understood that any commercially available form of secretin may be used.
# In this experiment, the fecal chymotrypsin levels of 34 children diagnosed with ADHD were obtained using the fecal chymotrypsin test described above in Experiment 1, the levels of which are illustrated in FIG. 16. As shown, 32 children out of 34 children tested were determined to have sub-normal fecal chymotrypsin levels.
# To determine the effect of secretin administration on ADHD children, 5 of the 24 children having a pathologic fecal chymotrypsin level were administered secretin using the secretin infusion process described above.
# [3] = 6 Months Post-Secretin Administration, of 37 children, 0 pre-secretin
substance,measurement,setting,value
secretin,# Autistic Children w/Equivocal FC levels,[1]; [3],2
same,# Autistic Children w/normal FC levels,[1]; [3],34
same,fecal chymotrypsin level post-secretin administration compared with pre-secretin,"[1]; each of 16 autistic children, approximately one week after first secretin infusion, 1 U/kg IV",increased
same,level of Ritalin (mg) needed to remain at the same functional level,[2],significant changes

# Reference: patent publication US20060182728A1, “Methods for treating pervasive development disorders” (priority 1999, published 2006)
